Reference: US20240041976A1, “COMPOSITION AND USE” (priority 2020, published 2024)

What was measured:
[1] = test system: S. aureus USA 300; experiment: Planktonic cell growth inhibition assay (MIC50, liquid culture); assay type: cell-based, Staphylococcus aureus
Protocol: (§1) Growth inhibition assays were performed in 96-well microtiter plates as described previously (Chi and Holo, 2018, supra). Briefly, 135 μl of TSB were dispensed in each well of a microtiter plate (according to the number of bacterial strains tested) except in the wells of the first row. The antimicrobials were diluted in TSB to working concentrations in a final volume of 285 μl and dispensed in the wells of the first row. The working concentrations were 100 μg/μl for garvicin KS, 10 μg/μl for micrococcin P1 and 1 mg/ml for penicillin G. From the first row, 150 μl of the antimicrobials were then serially diluted (two-fold dilutions) in a sequential fashion until the last row of the plate. Finally, 15 μl of a fresh O/N culture of each strain were added in the appropriate wells to reach a final volume of 150 μl in each well. The plates were then incubated at 37° C. for 24 h. The growth inhibition was expressed as minimum inhibitory concentration (MIC50), which refers to the minimum concentration of the antimicrobial needed to reduce at least 50% of the microbial growth compared to the untreated control. The MIC50 was assessed by optical density readings at 600 nm (O.D.600).
(§2) Synergistic interactions between antimicrobials were determined using the fractional inhibition concentration (FIC). The FIC values were calculated as follows: the sum of the FIC =FICa+FICb+FICc, where the FICa means MIC of A in combination/MIC of A alone, FICb means MIC of B in combination/MIC of B, and FICc means MIC of C in combination/MIC of C alone. Effects were considered as synergistic if FIC was ≤0.5 for two components mixture and ≤0.75 for three components mixture.

[2] = test system: S. aureus ATTC 29213; experiment: as above; assay type: cell-based, Staphylococcus aureus
Protocol: as §1, §2

[3] = test system: S. aureus ATTC 33591; experiment: as above; assay type: cell-based, Staphylococcus aureus
Protocol: as §1, §2

[4] = test system: S. aureus Newman; experiment: as above; assay type: cell-based, Staphylococcus aureus
Protocol: as §1, §2

[5] = test system: S. aureus ATTC 10832; experiment: as above; assay type: cell-based, Staphylococcus aureus
Protocol: as §1, §2

[6] = test system: S.a. 3255; experiment: as above; assay type: cell-based, Staphylococcus aureus
Protocol: as §1, §2

[7] = test system: S. haemolyticus 4071; experiment: microbe, parasite or virus in culture; settings: for MIC of the component in combination: 4071
Protocol: as §1, §2
(§3) Bacteriocins and antimicrobial assays. […] These bacteriocins were all solubilized in 0.1% (vol/vol) trifluoracetic acid (TFA; Sigma-Aldrich). […] Cell growth inhibition assays and antimicrobial synergy determination was performed in line with Example 1.
(§4) To investigate whether there was synergy between the three bacteriocins (K1-EJ, GarKS and MP1), a checkboard antimicrobial assay was performed. The selected strains were treated for 5, 24 and 48 h with a range of concentrations of K1-EJ, GarKS and MP1 alone or in different combinations.

[8] = test system: S. haemolyticus 4073; experiment: microbe, parasite or virus in culture; settings: for MIC of the component in combination: 4073
Protocol: as §1, §2, §3, §4

[9] = test system: S. haemolyticus 4069; experiment: microbe, parasite or virus in culture; settings: for MIC of the component in combination: 4069
Protocol: as §1, §2, §3, §4

[10] = test system: S. haemolyticus 4068; experiment: microbe, parasite or virus in culture; settings: for MIC of the component in combination: 4068
Protocol: as §1, §2, §3, §4

[11] = test system: S. haemolyticus 4072; experiment: microbe, parasite or virus in culture; settings: for MIC of the component in combination: 4072
Protocol: as §1, §2, §3, §4

[12] = garvicin KS + micrococcin P1 + penicillin G
[13] = Staphylococcus aureus, individual component, read-out: MIC50

For `C/C=C(\NC(=O)c1csc(-c2csc(-c3ccc4c(n3)-c3csc(n3)[C@H]([C@@H](C)O)NC(=O)c3csc(n3)[C@H](C(C)C)NC(=O)c3csc(n3)/C(=C/C)NC(=O)[C@H]([C@@H](C)O)NC(=O)c3csc-4n3)n2)n1)C(=O)NC[C@@H](C)O` [MP1, micrococcin P1], the MIC50 ([1]; Staphylococcus aureus, USA300, individual component, read-out: MIC50) was 0.63 µg/mL, the “MIC50 of the component in combination” value ([1]; garvicin KS + micrococcin P1) was 0.156 µg/mL and the “MIC50 of the component in combination” value [1, 12] was 0.63 µg/mL. The MIC50 ([2]; Staphylococcus aureus, ATTC29213, individual component, read-out: MIC50) was 2.5 µg/mL, the “MIC50 of the component in combination” value ([2]; garvicin KS + micrococcin P1) was 1.3 µg/mL and the “MIC50 of the component in combination” value [2, 12] was 0.31 µg/mL. For the same compound, the MIC50 ([3]; Staphylococcus aureus, ATTC33591, individual component, read-out: MIC50) was greater than 10 µg/mL, the “MIC50 of the component in combination” value ([3]; garvicin KS + micrococcin P1) was 1.3 µg/mL and the “MIC50 of the component in combination” value [3, 12] was 1.3 µg/mL. The MIC50 [4, 13] was 0.313 µg/mL, the “MIC50 of the component in combination” value ([4]; garvicin KS + micrococcin P1) was 0.313 µg/mL and the “MIC50 of the component in combination” value [4, 12] was less than 0.078 µg/mL. The MIC50 ([5]; Staphylococcus aureus, ATTC10832, individual component, read-out: MIC50) was 0.63 µg/mL, the “MIC50 of the component in combination” value ([5]; garvicin KS + micrococcin P1) was 0.63 µg/mL and the “MIC50 of the component in combination” value [5, 12] was less than 0.078 µg/mL. The MIC50 [6, 13] was 10 µg/mL, the “MIC50 of the component in combination” value ([6]; garvicin KS + micrococcin P1) was 1.3 µg/mL and the “MIC50 of the component in combination” value [6, 12] was less than 0.078 µg/mL. The “MIC of the component in combination” value ([7]; 5 h, GarKS + MP1) was 0.068 µg/mL, the “MIC of the component in combination” value ([7]; 5 h, K1-EJ + GarKS + MP1) was 0.072 µg/mL and the “MIC of the component in combination” value ([7]; 5 h, K1-EJ + MP1) was 0.042 µg/mL. For the same compound, the “MIC of the component in combination” value ([7]; 24 h, GarKS + MP1) was 0.63 µg/mL, the “MIC of the component in combination” value ([7]; 24 h, K1-EJ + GarKS + MP1) was 0.16 µg/mL and the “MIC of the component in combination” value ([7]; 24 h, K1-EJ + MP1) was 0.14 µg/mL. For the same compound, the “MIC of the component in combination” value ([7]; 48 h, GarKS + MP1) was 0.65 µg/mL, the “MIC of the component in combination” value ([7]; 48 h, K1-EJ + GarKS + MP1) was 0.33 µg/mL and the “MIC of the component in combination” value ([7]; 48 h, K1-EJ + MP1) was 0.3 µg/mL. For the same compound, the MIC ([7]; Staphylococcus haemolyticus, 4071, 5 h) was 0.043 µg/mL, the MIC ([7]; Staphylococcus haemolyticus, 4071, 24 h) was greater than 10 µg/mL and the MIC ([7]; Staphylococcus haemolyticus, 4071, 48 h) was greater than 10 µg/mL. For the same compound, the “MIC of the component in combination” value ([8]; 5 h, GarKS + MP1) was 0.02 µg/mL, the “MIC of the component in combination” value ([8]; 5 h, K1-EJ + GarKS + MP1) was 0.033 µg/mL and the “MIC of the component in combination” value ([8]; 5 h, K1-EJ + MP1) was 0.02 µg/mL. For the same compound, the “MIC of the component in combination” value ([8]; 24 h, GarKS + MP1) was 0.073 µg/mL, the “MIC of the component in combination” value ([8]; 24 h, K1-EJ + GarKS + MP1) was 0.078 µg/mL and the “MIC of the component in combination” value ([8]; 24 h, K1-EJ + MP1) was 0.036 µg/mL. The “MIC of the component in combination” value ([8]; 48 h, GarKS + MP1) was 0.083 µg/mL, the “MIC of the component in combination” value ([8]; 48 h, K1-EJ + GarKS + MP1) was 0.16 µg/mL and the “MIC of the component in combination” value ([8]; 48 h, K1-EJ + MP1) was 0.01 µg/mL. The MIC ([8]; Staphylococcus haemolyticus, 4073, 5 h) was 0.022 µg/mL, the MIC ([8]; Staphylococcus haemolyticus, 4073, 24 h) was 0.072 µg/mL and the MIC ([8]; Staphylococcus haemolyticus, 4073, 48 h) was 0.14 µg/mL. The “MIC of the component in combination” value ([9]; 5 h, GarKS + MP1) was 0.16 µg/mL, the “MIC of the component in combination” value ([9]; 5 h, K1-EJ + GarKS + MP1) was 0.068 µg/mL and the “MIC of the component in combination” value ([9]; 5 h, K1-EJ + MP1) was 0.15 µg/mL. The “MIC of the component in combination” value ([9]; 24 h, GarKS + MP1) was 2.5 µg/mL, the “MIC of the component in combination” value ([9]; 24 h, K1-EJ + GarKS + MP1) was 0.33 µg/mL and the “MIC of the component in combination” value ([9]; 24 h, K1-EJ + MP1) was 2.3 µg/mL. The “MIC of the component in combination” value ([9]; 48 h, GarKS + MP1) was 5 µg/mL, the “MIC of the component in combination” value ([9]; 48 h, K1-EJ + GarKS + MP1) was 0.58 µg/mL and the “MIC of the component in combination” value ([9]; 48 h, K1-EJ + MP1) was 4.8 µg/mL. It also gave an MIC ([9]; Staphylococcus haemolyticus, 4069, 5 h) of 0.15 µg/mL, an MIC ([9]; Staphylococcus haemolyticus, 4069, 24 h) greater than 10 µg/mL and an MIC ([9]; Staphylococcus haemolyticus, 4069, 48 h) greater than 10 µg/mL. For the same compound, the “MIC of the component in combination” value ([10]; 5 h, GarKS + MP1) was 0.02 µg/mL, the “MIC of the component in combination” value ([10]; 5 h, K1-EJ + GarKS + MP1) was 0.032 µg/mL and the “MIC of the component in combination” value ([10]; 5 h, K1-EJ + MP1) was 0.02 µg/mL. The “MIC of the component in combination” value ([10]; 24 h, GarKS + MP1) was 0.032 µg/mL, the “MIC of the component in combination” value ([10]; 24 h, K1-EJ + GarKS + MP1) was 0.078 µg/mL and the “MIC of the component in combination” value ([10]; 24 h, K1-EJ + MP1) was 0.078 µg/mL. The “MIC of the component in combination” value ([10]; 48 h, GarKS + MP1) was 0.068 µg/mL, the “MIC of the component in combination” value ([10]; 48 h, K1-EJ + GarKS + MP1) was 0.28 µg/mL and the “MIC of the component in combination” value ([10]; 48 h, K1-EJ + MP1) was 0.072 µg/mL. The MIC ([10]; Staphylococcus haemolyticus, 4068, 5 h) was 0.02 µg/mL, the MIC ([10]; Staphylococcus haemolyticus, 4068, 24 h) was 0.023 µg/mL and the MIC ([10]; Staphylococcus haemolyticus, 4068, 48 h) was 0.078 µg/mL. The “MIC of the component in combination” value ([11]; 5 h, GarKS + MP1) was 0.073 µg/mL, the “MIC of the component in combination” value ([11]; 5 h, K1-EJ + GarKS + MP1) was 0.068 µg/mL and the “MIC of the component in combination” value ([11]; 5 h, K1-EJ + MP1) was 0.036 µg/mL. For the same compound, the “MIC of the component in combination” value ([11]; 24 h, GarKS + MP1) was 0.16 µg/mL, the “MIC of the component in combination” value ([11]; 24 h, K1-EJ + GarKS + MP1) was 0.16 µg/mL and the “MIC of the component in combination” value ([11]; 24 h, K1-EJ + MP1) was 0.15 µg/mL. For the same compound, the “MIC of the component in combination” value ([11]; 48 h, GarKS + MP1) was 0.31 µg/mL, the “MIC of the component in combination” value ([11]; 48 h, K1-EJ + GarKS + MP1) was 0.58 µg/mL and the “MIC of the component in combination” value ([11]; 48 h, K1-EJ + MP1) was 0.16 µg/mL. For the same compound, the MIC ([11]; Staphylococcus haemolyticus, 4072, 5 h) was 0.039 µg/mL, the MIC ([11]; Staphylococcus haemolyticus, 4072, 24 h) was greater than 10 µg/mL and the MIC ([11]; Staphylococcus haemolyticus, 4072, 48 h) was 0.63 µg/mL.
